For test [1], the target named is T1, soluble guanylate cyclase α1β1 (sGC) (Homo sapiens, UniProt Q02108+Q02153).
T1 construct: gene GUCY1B1; α1β1 catalytic domain (sGCcat); with sGC α1 subunit (GUCY1A1)
T1 sequence (Q02153 408-619 limits assumed): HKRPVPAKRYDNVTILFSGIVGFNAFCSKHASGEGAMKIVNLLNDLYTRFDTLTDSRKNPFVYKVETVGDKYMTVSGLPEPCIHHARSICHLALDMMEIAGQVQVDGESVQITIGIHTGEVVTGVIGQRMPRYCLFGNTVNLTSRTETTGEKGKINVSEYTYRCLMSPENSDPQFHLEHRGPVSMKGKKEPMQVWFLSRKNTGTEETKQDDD
T1 sequence (Q02108 467-690): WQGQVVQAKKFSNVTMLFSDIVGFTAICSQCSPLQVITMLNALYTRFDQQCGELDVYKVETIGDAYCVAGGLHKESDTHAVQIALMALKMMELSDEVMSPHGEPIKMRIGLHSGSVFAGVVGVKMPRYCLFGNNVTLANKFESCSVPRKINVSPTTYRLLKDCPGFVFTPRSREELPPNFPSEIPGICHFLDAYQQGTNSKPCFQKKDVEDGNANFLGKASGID
Description: SPR (Biacore T200), concentration series. It is filed as binding.

Test [2] concerns the target T2, soluble guanylate cyclase α1β1 (sGC) (Homo sapiens, UniProt Q02153).
T2 construct: gene GUCY1B1; full length sGC; with sGC α1 subunit (GUCY1A1)
T2 sequence (Q02153 1-619): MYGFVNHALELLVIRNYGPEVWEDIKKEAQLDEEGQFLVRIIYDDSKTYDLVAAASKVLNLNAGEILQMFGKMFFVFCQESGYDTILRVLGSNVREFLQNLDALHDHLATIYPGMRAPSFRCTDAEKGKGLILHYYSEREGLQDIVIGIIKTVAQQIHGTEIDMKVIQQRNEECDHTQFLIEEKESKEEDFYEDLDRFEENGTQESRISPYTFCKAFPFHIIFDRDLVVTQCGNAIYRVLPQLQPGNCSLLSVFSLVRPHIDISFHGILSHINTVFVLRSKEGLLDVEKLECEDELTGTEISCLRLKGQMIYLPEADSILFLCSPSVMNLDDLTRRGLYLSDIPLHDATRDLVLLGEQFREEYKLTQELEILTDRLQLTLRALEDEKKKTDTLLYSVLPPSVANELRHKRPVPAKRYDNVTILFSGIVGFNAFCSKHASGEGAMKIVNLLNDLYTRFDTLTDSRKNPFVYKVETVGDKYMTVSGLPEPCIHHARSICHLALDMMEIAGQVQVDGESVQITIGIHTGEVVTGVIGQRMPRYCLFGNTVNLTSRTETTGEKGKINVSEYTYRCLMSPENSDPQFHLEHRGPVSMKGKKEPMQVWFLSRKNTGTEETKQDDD
T2 sequence (Q02108 1-690 partner): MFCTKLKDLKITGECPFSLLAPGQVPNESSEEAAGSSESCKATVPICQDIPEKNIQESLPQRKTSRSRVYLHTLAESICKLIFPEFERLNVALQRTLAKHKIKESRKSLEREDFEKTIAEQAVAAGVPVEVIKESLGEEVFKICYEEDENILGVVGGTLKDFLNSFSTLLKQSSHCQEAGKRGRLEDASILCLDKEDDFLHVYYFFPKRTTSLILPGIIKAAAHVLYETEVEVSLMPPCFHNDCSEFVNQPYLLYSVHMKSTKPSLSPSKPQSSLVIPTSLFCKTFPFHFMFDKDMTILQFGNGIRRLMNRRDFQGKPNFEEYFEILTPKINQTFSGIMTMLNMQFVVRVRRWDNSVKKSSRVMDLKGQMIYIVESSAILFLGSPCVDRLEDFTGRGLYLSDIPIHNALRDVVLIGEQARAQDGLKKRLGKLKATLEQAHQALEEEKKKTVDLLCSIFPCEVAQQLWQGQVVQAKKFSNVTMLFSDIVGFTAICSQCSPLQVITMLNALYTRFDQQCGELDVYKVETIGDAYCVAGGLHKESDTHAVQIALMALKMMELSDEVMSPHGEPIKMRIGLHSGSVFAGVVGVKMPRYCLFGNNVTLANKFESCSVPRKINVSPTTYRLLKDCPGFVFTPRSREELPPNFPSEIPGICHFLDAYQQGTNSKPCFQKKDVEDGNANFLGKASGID
Description: SPR (Biacore T200) at […]. The class given is binding.

This is an account of results in publication PMC3978654, “Surface plasmon resonance using the catalytic domain of soluble guanylate cyclase allows the detection of enzyme activators^” (Bioorganic & Medicinal Chemistry Letters, 2014).

What is called Kd is a measure of binding affinity in units of concentration. Read a high Kd as lower affinity. `Nc1nc2c(ncn2[C@@H]2O[C@H](COP(=O)(O)OP(=O)(O)OP(=O)(O)O)[C@@H](O)[C@H]2O)c(=O)[nH]1` [GTP] had a Kd in test [1] of 326 µM.

As to `O=C(O)CCCCN(CCc1ccccc1OCc1ccc(CCc2ccccc2)cc1)Cc1ccc(C(=O)O)cc1` [compound 1, BAY 58-2667], the “SPR (Biacore T200) at 100 μM” value in test [2] was “showed strong binding to the full length sGC and only non-specific binding to sGCcat”.
